Laboratory results from patent US11014915B2, “Selective estrogen receptor degrader” (SUN PHARMA ADVANCED RESEARCH COMPANY LIMITED, priority 2019, dated 2021).

What was measured:
[1] = biological target: T1, ER-α in MCF-7 cells harboring mutant ER (WT/D538G) (Homo sapiens, UniProt P03372, D538G); assay: ER-α degradation (SERD) assay, MCF-7 D538G; format: cell-based; conditions: for DC50: MCF-7 D538G, 4 days, read-out: ER-α degradation assay D538G IC50
T1 construct: MCF-7 cells harboring mutant ER (WT/D538G and WT/Y537S); endogenous in cells; host or cells: MCF-7 D538G (WT/D538G)
T1 sequence (P03372 1-595 D538G): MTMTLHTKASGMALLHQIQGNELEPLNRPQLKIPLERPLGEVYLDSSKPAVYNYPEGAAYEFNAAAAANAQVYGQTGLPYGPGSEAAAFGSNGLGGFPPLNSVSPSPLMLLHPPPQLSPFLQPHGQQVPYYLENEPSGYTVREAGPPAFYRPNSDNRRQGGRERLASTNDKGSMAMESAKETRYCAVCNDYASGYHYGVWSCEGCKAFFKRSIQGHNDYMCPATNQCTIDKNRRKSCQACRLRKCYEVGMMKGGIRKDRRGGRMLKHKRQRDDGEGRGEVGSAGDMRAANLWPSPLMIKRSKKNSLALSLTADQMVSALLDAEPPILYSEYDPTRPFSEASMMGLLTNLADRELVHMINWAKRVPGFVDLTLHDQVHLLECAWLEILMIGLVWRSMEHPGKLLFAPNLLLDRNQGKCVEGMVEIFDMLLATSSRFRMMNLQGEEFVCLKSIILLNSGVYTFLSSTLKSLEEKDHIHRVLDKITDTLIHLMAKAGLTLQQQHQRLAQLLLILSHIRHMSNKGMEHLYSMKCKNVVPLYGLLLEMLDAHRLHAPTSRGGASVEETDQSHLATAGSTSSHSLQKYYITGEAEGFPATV
Method: Selective Estrogen Receptor Degradation (SERD) Assay:
The SERD activity for the test compounds was evaluated in MCF-7 cells harboring ER wild type, and MCF-7 cells harboring mutant ER (WT/D538G and WT/Y537S). Briefly, cells were plated in phenol red free RPMI1640 medium supplemented with 5% charcoal stripped fetal bovine serum. The seeding density was 40000 cells/well for MCF-7 WT and MCF-7 D538G and 50000 cells/well MCF-7 Y537S in a 48-well plate. Following overnight incubation, the cells were treated with varying concentrations of test compounds (final concentration: 1000 nM to 0.01 nM, 0.1% DMSO) for 4 days. The cells were lysed using PBS supplemented with 1 mM EDTA, 0.5% Triton X-100, 5 mM NaF, 6 M urea, and 1× Protease inhibitor cocktail. The lysate was analyzed for ER alpha protein using western blot. For the western blot, the cell lysate (12.5-40 μg total protein) was resolved on a 10% SDS PAGE and transferred onto a PVDF membrane. The blots were blocked using 5% skim milk powder in 0.1% PBS-T for 1 hour at room temperature, followed by co-incubation with rabbit anti-human β-actin antibody and rabbit anti-human ERα antibody for 2 hours at room temperature. The blots were subsequently probed with anti-rabbit IgG-HRP conjugate as secondary antibody for 1 hour at room temperature. The blots were developed by using West Pico Super Signal Chemiluminescence substrate and the bands were processed for densitometry analysis using Image Lab software (BioRad version 6.0.0). ERα band intensity was normalized to that housekeeping protein for respective samples. The % ER remaining was calculated by normalizing against the vehicle control (as 100%).

[2] = tested on: MCF-7 cells harboring mutant ER (WT/D538G); assay: MCF-7 cell growth inhibition assay, D538G; format: cell-based; conditions: Homo sapiens, MCF7, 168 h; MCF-7 D538G, seven-day incubation
Method: (§1) MCF-7 Cell Growth Inhibition Assay:
(§2) The anti-proliferative activity of the test compounds were evaluated in a growth inhibition assay. Briefly, MCF-7 cells harboring ER wild type (Wt), and MCF-7 cells harboring mutant ER (WT/D538G and WT/Y537S) were seeded at a density of 1000 cells/well in 96-well plate in phenol red free RPMI1640 medium supplemented with 10% charcoal stripped fetal bovine serum. The cells were incubated overnight at 37° C. and 5% CO2 followed by the addition of varying concentrations of the test compounds in DMSO. Final concentration of DMSO in the well was 0.5%. Following a seven-day incubation of cells with the test compounds, cell viability was assessed using a Prestoblue™ reagent. The percent inhibition of cell proliferation was calculated by normalizing the cell viability using a vehicle control as 0% inhibition of proliferation.

[3] = tested on: MCF-7 cells harboring ER wild type (Wt); assay: MCF-7 cell growth inhibition assay, wild type; format: cell-based, human; conditions: for IC50: Homo sapiens, MCF7, 168 h, MCF-7 Wt, seven-day incubation
Method: as §1, §2

Compound | DC50 [1] [nM] | IC50 [2] [nM] | IC50 [3] [nM] | Potency of Formula Ia relative to Formula Ib in MCF-7 growth inhibition assay ([3]; wild type) | ER-α degradation in mutated cell line (in words) ([1]; D538G)
CC1=C(c2cc(F)cc(F)c2)[C@H](c2ccc(/C=C/CN3CC(CF)C3)cc2)Oc2cc(O)ccc21 [Formula Ia, (2S)-3-(3,5-difluorophenyl)-2-[4-[(E)-3-[3-(fluoromethyl)azetidin-1-yl]prop-1-enyl]phenyl]-4-methyl-2H-chromen-7-ol] | 12.7 | 2.2 | 0.3 | about 233 times | 
CC1=C(c2cc(F)cc(F)c2)[C@@H](c2ccc(/C=C/CN3CC(CF)C3)cc2)Oc2cc(O)ccc21 [Formula Ib, (2R)-3-(3,5-difluorophenyl)-2-[4-[(E)-3-[3-(fluoromethyl)azetidin-1-yl]prop-1-enyl]phenyl]-4-methyl-2H-chromen-7-ol] | > 1000 | 345 | 69.9 |  | no ER-α degradation
